In PubChem BioAssay (NCI):
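Five concentrations, 48 hours, 96-well plates. At the GI50, growth is halved. The concentration for full growth arrest is given as TGI.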

Assays:
Experiment in all cases: NCI-60 cell line screen, 48 h
786-0 renal = test system: 786-0 renal
A498 renal = test system: A498 renal
A549 NSCLC = test system: A549 NSCLC
ACHN renal = test system: ACHN renal
BT-549 breast = test system: BT-549 breast
CAKI-1 renal = test system: CAKI-1 renal
CCRF-CEM leukemia = test system: CCRF-CEM leukemia
COLO 205 colon = test system: COLO 205 colon
DU-145 prostate = test system: DU-145 prostate
EKVX NSCLC = test system: EKVX NSCLC
HCC-2998 colon = test system: HCC-2998 colon
HCT-15 colon = test system: HCT-15 colon
HL-60(TB) leukemia = test system: HL-60(TB) leukemia
HOP-62 NSCLC = test system: HOP-62 NSCLC
HOP-92 NSCLC = test system: HOP-92 NSCLC
HS 578T breast = test system: HS 578T breast
HT29 colon = test system: HT29 colon
IGROV1 ovarian = test system: IGROV1 ovarian
K-562 leukemia = test system: K-562 leukemia
KM12 colon = test system: KM12 colon
LOX IMVI melanoma = test system: LOX IMVI melanoma
M14 melanoma = test system: M14 melanoma
MALME-3M melanoma = test system: MALME-3M melanoma
MCF7 breast = test system: MCF7 breast
MDA-MB-231 breast = test system: MDA-MB-231 breast
MDA-MB-435 = test system: MDA-MB-435
MOLT-4 leukemia = test system: MOLT-4 leukemia
NCI-H226 lung = test system: NCI-H226 lung
NCI-H23 lung = test system: NCI-H23 lung
NCI-H460 lung = test system: NCI-H460 lung
NCI-H522 lung = test system: NCI-H522 lung
NCI/ADR-RES ovarian = test system: NCI/ADR-RES ovarian
OVCAR-3 ovarian = test system: OVCAR-3 ovarian
OVCAR-4 ovarian = test system: OVCAR-4 ovarian
OVCAR-5 ovarian = test system: OVCAR-5 ovarian
OVCAR-8 ovarian = test system: OVCAR-8 ovarian
PC-3 prostate = test system: PC-3 prostate
RPMI-8226 leukemia = test system: RPMI-8226 leukemia
RXF 393 renal = test system: RXF 393 renal
SF-268 CNS = test system: SF-268 CNS
SF-295 CNS = test system: SF-295 CNS
SF-539 CNS = test system: SF-539 CNS
SK-MEL-2 melanoma = test system: SK-MEL-2 melanoma
SK-MEL-28 melanoma = test system: SK-MEL-28 melanoma
SK-OV-3 ovarian = test system: SK-OV-3 ovarian
SN12C renal = test system: SN12C renal
SNB-19 CNS = test system: SNB-19 CNS
SNB-75 CNS = test system: SNB-75 CNS
SW-620 colon = test system: SW-620 colon
T-47D breast = test system: T-47D breast
TK-10 renal = test system: TK-10 renal
U251 CNS = test system: U251 CNS
UACC-257 melanoma = test system: UACC-257 melanoma
UACC-62 melanoma = test system: UACC-62 melanoma
UO-31 renal = test system: UO-31 renal

COc1cc(C(=O)O)ccc1NC(=O)[C@@H]1N[C@@H](CC(C)(C)C)[C@](C#N)(c2ccc(Cl)cc2F)[C@H]1c1cccc(Cl)c1F
GI50 (786-0 renal): 3.45 µM
TGI (786-0 renal): 18.4 µM
GI50 (A498 renal): 132 nM
TGI (A498 renal): 2790 nM
GI50 (A549 NSCLC): 138 nM
TGI (A549 NSCLC): 8.21 µM
GI50 (ACHN renal): 49.6 nM
TGI (ACHN renal): 6.82 µM
GI50 (BT-549 breast): 2760 nM
TGI (BT-549 breast): 7.11 µM
GI50 (CAKI-1 renal): 100 nM
TGI (CAKI-1 renal): 7.01 µM
GI50 (CCRF-CEM leukemia): 2530 nM
TGI (CCRF-CEM leukemia): > 26.3 µM
GI50 (COLO 205 colon): 3.1 µM
TGI (COLO 205 colon): 12 µM
GI50 (DU-145 prostate): 5.24 µM
TGI (DU-145 prostate): 30.4 µM
GI50 (EKVX NSCLC): 6.51 µM
TGI (EKVX NSCLC): 24 µM
GI50 (HCC-2998 colon): 4.62 µM
TGI (HCC-2998 colon): 13.3 µM
GI50 (HCT-15 colon): 2930 nM
TGI (HCT-15 colon): 10.1 µM
GI50 (HL-60(TB) leukemia): 2280 nM
TGI (HL-60(TB) leukemia): 6.71 µM
GI50 (HOP-62 NSCLC): 6.04 µM
TGI (HOP-62 NSCLC): 17.4 µM
GI50 (HOP-92 NSCLC): 2480 nM
TGI (HOP-92 NSCLC): 5.15 µM
GI50 (HS 578T breast): 3.9 µM
TGI (HS 578T breast): 15.8 µM
GI50 (HT29 colon): 3.39 µM
TGI (HT29 colon): 22.2 µM
GI50 (IGROV1 ovarian): 2210 nM
TGI (IGROV1 ovarian): 17.3 µM
GI50 (K-562 leukemia): 4.15 µM
TGI (K-562 leukemia): > 100 µM
GI50 (KM12 colon): 2580 nM
TGI (KM12 colon): > 24.2 µM
GI50 (LOX IMVI melanoma): 148 nM
TGI (LOX IMVI melanoma): 6.84 µM
GI50 (M14 melanoma): 3.18 µM
TGI (M14 melanoma): > 30.1 µM
GI50 (MALME-3M melanoma): 44.8 nM
TGI (MALME-3M melanoma): 8.27 µM
GI50 (MCF7 breast): 32.8 nM
TGI (MCF7 breast): 4.12 µM
GI50 (MDA-MB-231 breast): 6.58 µM
TGI (MDA-MB-231 breast): > 100 µM
GI50 (MDA-MB-435): 2820 nM
TGI (MDA-MB-435): 13.1 µM
GI50 (MOLT-4 leukemia): 83 nM
TGI (MOLT-4 leukemia): 2070 nM
GI50 (NCI-H226 lung): 94.1 nM
TGI (NCI-H226 lung): 1710 nM
GI50 (NCI-H23 lung): 5.47 µM
TGI (NCI-H23 lung): 19.5 µM
GI50 (NCI-H460 lung): 77 nM
TGI (NCI-H460 lung): 2270 nM
GI50 (NCI-H522 lung): 2720 nM
TGI (NCI-H522 lung): 10.8 µM
GI50 (NCI/ADR-RES ovarian): 6.83 µM
TGI (NCI/ADR-RES ovarian): 25.2 µM
GI50 (OVCAR-3 ovarian): 1770 nM
TGI (OVCAR-3 ovarian): 4.3 µM
GI50 (OVCAR-4 ovarian): 4.56 µM
TGI (OVCAR-4 ovarian): 29.6 µM
GI50 (OVCAR-5 ovarian): 7.23 µM
TGI (OVCAR-5 ovarian): 24.9 µM
GI50 (OVCAR-8 ovarian): 4.08 µM
TGI (OVCAR-8 ovarian): 23 µM
GI50 (PC-3 prostate): 2910 nM
TGI (PC-3 prostate): > 42.6 µM
GI50 (RPMI-8226 leukemia): 2510 nM
TGI (RPMI-8226 leukemia): > 22.9 µM
GI50 (RXF 393 renal): 3.55 µM
TGI (RXF 393 renal): 10.3 µM
GI50 (SF-268 CNS): 4.62 µM
TGI (SF-268 CNS): 30.5 µM
GI50 (SF-295 CNS): 2780 nM
TGI (SF-295 CNS): 8.64 µM
GI50 (SF-539 CNS): 3.63 µM
TGI (SF-539 CNS): 11.5 µM
GI50 (SK-MEL-2 melanoma): 2960 nM
TGI (SK-MEL-2 melanoma): 10 µM
GI50 (SK-MEL-28 melanoma): 2560 nM
TGI (SK-MEL-28 melanoma): 7.59 µM
GI50 (SK-OV-3 ovarian): 7.02 µM
TGI (SK-OV-3 ovarian): 21.3 µM
GI50 (SN12C renal): 4.27 µM
TGI (SN12C renal): > 41.9 µM
GI50 (SNB-19 CNS): 5.6 µM
TGI (SNB-19 CNS): 31.2 µM
GI50 (SNB-75 CNS): 3.35 µM
TGI (SNB-75 CNS): 20.9 µM
GI50 (SW-620 colon): 3.02 µM
TGI (SW-620 colon): > 26.3 µM
GI50 (T-47D breast): 5.23 µM
TGI (T-47D breast): 43.7 µM
GI50 (TK-10 renal): 5.28 µM
TGI (TK-10 renal): 21.2 µM
GI50 (U251 CNS): 3.16 µM
TGI (U251 CNS): 11 µM
GI50 (UACC-257 melanoma): 145 nM
TGI (UACC-257 melanoma): 1830 nM
GI50 (UACC-62 melanoma): 90.9 nM
TGI (UACC-62 melanoma): 2130 nM
GI50 (UO-31 renal): 41.4 nM
TGI (UO-31 renal): 5.03 µM
